# Structures can show the parent of a compound that is named as a salt.
# Key:
# Settings in all cases: stereoisomer not certain
# [1] = RP, Agilent ZORBAX Eclipse XDB-C18, 100 × 2.1 mm, 1.8 µm, 50 °C, 0.4 mL/min, estimated dead time 0.55 min; A: water + 0.1% formic acid, pH 3; B: methanol + 0.1% formic acid, pH 3; gradient (min/%B) 0/2 10/100 14.5/100 14.51/2 16.5/2
# [2] = RP, Waters ACQUITY UPLC HSS T3, 100 × 2.1 mm, 50 °C; A: water + 0.1% formic acid, pH 3; B: 30% methanol + 70% acetonitrile + 0.1% formic acid, pH 3; gradient (min/%B) 0/5 1/8 2/15 3/40 4/70 4.5/100 5/100 6.4/100 6.6/5 6.8/5 7/5
# [3] = RP, Waters ACQUITY UPLC BEH C18, 100 × 2.1 mm, 1.7 µm, 65 °C, 0.4 mL/min, estimated dead time 0.55 min; A: water + 0.1% formic acid, pH 3; B: 80% acetonitrile + 20% acetone + 0.1% formic acid, pH 3; gradient (min/%B) 0/0 5/100 5.5/0 6/0
# [4] = RP, Waters ACQUITY UPLC HSS T3, 100 × 2.1 mm, 1.8 µm, 30 °C, 0.4 mL/min, estimated dead time 0.55 min; A: water + 0.1% formic acid, pH 3; B: acetonitrile + 0.1% formic acid, pH 3; gradient (min/%B) 0/0 2/0 15/100 22/100 22.1/0 26/0
# [5] = RP, Phenomenex Synergi Hydro-RP, 250 × 2 mm, 4 µm, 25 °C, 0.2 mL/min, estimated dead time 2.5 min; A: water + 0.1% formic acid, pH 3; B: acetonitrile + 0.1% formic acid, pH 3; gradient (min/%B) 0/0.5 7/0.5 12/12.5 25/16.3 47/35 48/65 50/65 50.1/0.5
# [6] = RP, Agilent ZORBAX RRHD Eclipse Plus C18, 50 × 2.1 mm, 1.8 µm, 30 °C, 0.4 mL/min, estimated dead time 0.28 min; A: water + 0.1% formic acid, pH 3; B: acetonitrile + 0.1% formic acid, pH 3; gradient (min/%B) 0/1 5/10 8/25 9.1/99 10/99 12/1
# [7] = RP, Agilent ZORBAX RRHD Eclipse Plus C18, 50 × 2.1 mm, 1.8 µm, 30 °C, 0.4 mL/min, estimated dead time 0.28 min; A: water + 0.1% formic acid, pH 3; B: acetonitrile + 0.1% formic acid, pH 3; gradient (min/%B) 0/1 5/10 8/25 9.1/99 10/99 12/99
# [8] = RP, 150 × 2.1 mm, 2.6 µm, 40 °C, 0.35 mL/min, estimated dead time 0.94 min; A: water + 0.1% formic acid, pH 3; B: acetonitrile + 0.1% formic acid, pH 3; gradient (min/%B) 0/0 1/5 7/45 8.5/80 10.5/80 11/5 12/5
Structure (SMILES),LC retention time [2] [min],LC retention time [3] [min],LC retention time [5] [min],other results
CC(C)(CO)C(O)C(=O)NCCC(=O)O (racemic) [DL-Pantothenic acid],2,,,LC retention time [1]: 2.42 min
"Cn1c(=O)c2[nH]c(=O)[nH]c2n(C)c1=O [1,3-Dimethyluric acid]",2.01,1.45,,LC retention time [4]: 7.03 min
Cn1c(=O)[nH]c2[nH]c(=O)[nH]c2c1=O [1-Methyluric acid],1.27,1.29,,
O=C(O)Cc1ccccc1O [2-Hydroxyphenylacetic acid],3.4,,,LC retention time [1]: 3.82 min; LC retention time [4]: 9.13 min
COc1ccccc1C=CC(=O)O [2-Methoxycinnamic acid],,,50,
Cc1ccccc1C(=O)NCC(=O)O [2-Methylhippuric acid],3.4,1.96,,
O=C(OC1OC(C(=O)O)C(O)C(O)C1O)c1c[nH]c2ccccc12 (configuration not stated) [3-Indole carboxylic acid glucuronide],3.36,1.89,,
O=C(O)Cc1c[nH]c2ccccc12 [3-Indoleacetic acid],3.62,2.35,,LC retention time [1]: 5 min
O=C(O)C(O)Cc1c[nH]c2ccccc12 (configuration not stated) [3-Indolelactic acid],3.53,2.14,,
O=S(=O)(O)Oc1c[nH]c2ccccc12 [3-Indoxyl sulfate],2.67,1.68,,
Cn1c(=O)[nH]c(=O)c2[nH]cnc21 [3-Methylxanthine],1.45,1.3,,
O=C(O)C(O)Cc1ccccc1 (configuration not stated) [3-Phenyllactic acid],,,27.2,
COc1cccc(C=CC(=O)O)c1 [3-methoxycinnamic acid],,,49.1,
O=C(O)CCc1ccccc1 [3-phenylpropionic acid],,2.78,44.5,
COc1ccc(C=CC(=O)O)cc1 [4-methoxycinnamic acid],,,48,
O=C(O)Cc1c[nH]c2ccc(O)cc12 [5-Hydroxyindole-3-acetic acid],2.86,1.61,,
O=C(O)CCCCCCCC(=O)O [Azelaic acid],3.63,2.33,,LC retention time [1]: 5.74 min
Cn1c(=O)c2c(ncn2C)n(C)c1=O [Caffeine],3.1,1.67,21.3,LC retention time [1]: 3.67 min; LC retention time [4]: 8.11 min
O=C(O)C1OC(Oc2ccccc2O)C(O)C(O)C1O (configuration not stated) [Catechol-O-1-glucuronide],2.65,,,LC retention time [6]: 4.38 min; LC retention time [7]: 3.09 min
O=C(O)CC(O)(CC(=O)O)C(=O)O [Citric acid],0.67,,6.32,LC retention time [1]: 1.09 min
CC(O)C1NC(=O)C2CCCN2C1=O (configuration not stated) [Cyclo(Pro-Thr)],1.54,1.37,,
CC(C)C1NC(=O)C2CCCN2C1=O (configuration not stated) [Cyclo(Pro-Val)],3.1,1.88,,LC retention time [4]: 8.07 min
NCCc1ccc(OS(=O)(=O)O)c(O)c1 [Dopamine 4-O-sulfate],0.606,1.3,,
NCCc1ccc(O)c(O)c1 [Dopamine],0.706,,,LC retention time [4]: 1.3 min
O=c1c(O)c(-c2ccc(OC3OC(CO)C(O)C(O)C3O)c(O)c2)oc2cc(O)cc(O)c12 (configuration not stated) [Quercetin 4-glucoside],,,,LC retention time [8]: 6.25 min

# Second part, led by results:
LC retention time [2] [min],LC retention time [3] [min],LC retention time [5] [min],Structure (SMILES),other results
,,19,Nc1nc2ncc(CNc3ccc(C(=O)NC(CCC(=O)O)C(=O)O)cc3)nc2c(=O)[nH]1 (configuration not stated) [Folic acid],LC retention time [1]: 3.46 min
,,4.44,CS(=O)CCCC(=NOS(=O)(=O)O)SC1OC(CO)C(O)C(O)C1O (configuration not stated) [Glucoiberin],
,,12.7,C=CCCC(=NOS(=O)(=O)O)SC1OC(CO)C(O)C(O)C1O (configuration not stated) [Gluconapin],
,,19.3,O=S(=O)(O)ON=C(CCc1ccccc1)SC1OC(CO)C(O)C(O)C1O (configuration not stated) [Gluconasturtiin],
,,6.23,CS(=O)CCCCC(=NOS(=O)(=O)O)SC1OC(CO)C(O)C(O)C1O (configuration not stated) [Glucoraphanin],
,,28.5,COc1cc(CCC(=O)O)ccc1O [Hydroferulic acid],LC retention time [4]: 9.38 min
3.56,2.13,,O=C(O)CNC(=O)C=Cc1c[nH]c2ccccc12 [Indole-3-acryloylglycine],
2.94,1.73,,O=C(O)C1OC(Oc2c[nH]c3ccccc23)C(O)C(O)C1O (stereo not drawn) [Indoxyl beta-d-glucuronide],
,,37.2,O=c1c(OC2OC(CO)C(O)C(O)C2O)c(-c2ccc(O)cc2)oc2cc(O)cc(O)c12 [Kaempferol 3-O-D-galactoside],
3.03,1.7,,c1coc(CNc2ncnc3nc[nH]c23)c1 [Kinetin],
1.46,1.4,,CC(=O)CCC(=O)O [Levulinic acid],
,,5.51,O=C(O)c1cccnc1 [Niacin],
2.56,1.48,,Cn1c(=O)[nH]c2ncn(C)c2c1=O [Paraxanthine],LC retention time [1]: 2.93 min; LC retention time [4]: 7.53 min
2.61,0.821,,Cc1ncc(CO)c(C=O)c1O [Pyridoxal],LC retention time [1]: 1.35 min
2.61,1.68,,O=C(O)c1ccc[nH]1 [Pyrrole-2-carboxylic acid],
,,37,O=C(O)CC(=O)OCC1OC(Oc2c(-c3ccc(O)c(O)c3)oc3cc(O)cc(O)c3c2=O)C(O)C(O)C1O (configuration not stated) [Quercetin 3-O-malonylglucoside],
,,20.6,CC1OC(OCC2OC(Oc3c(-c4ccc(O)c(O)c4)oc4cc(OC5OC(CO)C(O)C(O)C5O)cc(O)c4c3=O)C(O)C(O)C2O)C(O)C(O)C1O (configuration not stated) [Quercetin 3-O-rutinoside-7-O-glucoside],

LC retention time [2] [min],LC retention time [3] [min],LC retention time [5] [min],Structure (SMILES),other results
,,38.8,CC(=O)OCC1OC(Oc2c(-c3ccc(O)c(O)c3)oc3cc(O)cc(O)c3c2=O)C(O)C(O)C1O (configuration not stated) [Quercetin-3-O-(6-acetylglucoside)],
0.58,,3.21,O=C(O)C1(O)CC(O)C(O)C(O)C1 (configuration not stated) [Quinic acid],LC retention time [4]: 1.05 min
,,31.8,CC1OC(OCC2OC(Oc3c(-c4ccc(O)cc4)oc4cc(OC5OC(C)C(O)C(O)C5O)cc(O)c4c3=O)C(O)C(O)C2O)C(O)C(O)C1O (configuration not stated) [Robinin],
,,5.52,C=CCC(=NOS(=O)(=O)O)SC1OC(CO)C(O)C(O)C1O (configuration not stated) [Sinigrin],
,,47,O=C(C=Cc1ccc(O)cc1)OCC1OC(Oc2c(-c3ccc(O)cc3)oc3cc(O)cc(O)c3c2=O)C(O)C(O)C1O (configuration not stated) [Tiliroside],
,,7.67,O=c1[nH]c(=O)c2[nH]c(=O)[nH]c2[nH]1 [Uric acid],
2.57,,,O=C(O)c1cc(=O)c2cccc(O)c2[nH]1 [Xanthurenic acid],
,,32.5,COc1ccc(CC(=O)O)cc1OC [homoveratric acid],
,,40.2,COc1cccc(C(=O)O)c1 [m-Anisic acid],
3.44,2,,Cc1cccc(OS(=O)(=O)O)c1 [m-Cresol sulfate],
,,31.4,COc1ccccc1C(=O)O [o-Anisic acid],
3.38,1.93,,Cc1ccccc1OS(=O)(=O)O [o-Cresol sulfate],
3.44,2.01,,Cc1ccc(OC2OC(C(=O)O)C(O)C(O)C2O)cc1 (configuration not stated) [p-Cresol glucuronide],
3.38,1.99,,Cc1ccc(OS(=O)(=O)O)cc1 [p-Cresol sulfate],
2.66,,,O=C(O)C(O)Cc1ccc(O)cc1 (configuration not stated) [p-Hydroxyphenyllactic acid],LC retention time [1]: 2.73 min
,,27.4,O=C(O)CNCc1ccccc1O [salicylglycine],

# Reference: the RepoRT retention time repository (doi:10.1016/j.foodchem.2021.129757)
